Literature values, collected in patent publication EP4062897A1, “HAIR CARE COMPOSITION AND PREPARATION METHOD THEREFOR” (BioRight Worldwide Company Limited, priority 2019, dated 2021).

Conditions: in aqueous solution, typical value

**Q.** For NC(=O)c1ccc[n+]([C@@H]2O[C@H](COP(=O)([O-])O)[C@@H](O)[C@H]2O)c1 [nicotinamide mononucleotide, Nicotinamide mononucleotide], which half-life is on record?
**A.** 14 days
